Read-outs that look alike come from different tables or passages of the source.
Experiments:
[1] = system: isolated trachea of guinea pig; assay: relaxation of isolated trachea of guinea pig precontracted with methacoline; conditions: Cavia porcellus, read-out: IC50, relaxing the contraction of the isolated trachea of guinea pig precontracted with methacoline
Text: The compounds of the invention have been pharmacologically studied by means of in vitro and in vivo tests, suitable to evidence the anti-bronchospastic properties of the compounds. […] To this action a remarkable anti-bronchospastic action in the tests in vivo corresponded after administration by i.v. and inhalatory route.

[2] = system: bronchospasm induced by acetyl choline aerosol in guinea pig; assay: inhibition of bronchospasm induced by acetyl choline aerosol in awake guinea pig; type: in vivo; conditions: for ED50: Cavia porcellus, iv; for ED50, inhibition of bronchospasm induced by acetyl choline aerosol: i.v.
[3] = system: PAF-acether induced bronchospasm in guinea pig; assay: inhibition of PAF-acether induced bronchospasm in anestetized guinea pig; type: in vivo; conditions: for inhibition of PAF-acether induced bronchospasm (in words): up to 3 μmol/kg; for inhibition % of PAF-acether induced bronchospasm: guinea pig, i.v.
[4] = system: platelet aggregation (rabbit prp) from arachidonic acid; assay: platelet aggregation (rabbit prp) from arachidonic acid; type: cell-based; conditions: Oryctolagus cuniculus
[5] = system: platelet aggregation (rabbit prp) from collagen; assay: platelet aggregation (rabbit prp) from collagen; type: cell-based; conditions: Oryctolagus cuniculus
[6] = system: platelet aggregation (rabbit prp) from PAF acether; assay: platelet aggregation (rabbit prp) from PAF-acether; type: cell-based; conditions: Oryctolagus cuniculus
[7] = acute toxicity in the mouse; conditions: in vivo; for LD50: approximate value; for selectivity ratio: ratio os/i.p., read-out: LD50 os/i.p.
[8] = ip, read-out: approximate value of LD50, i.p.
[9] = po, os, read-out: approximate value of LD50, os

| Compound | IC50 [1] [nM] | ED50 [2] [µmol/kg] | further results |
| --- | --- | --- | --- |
| CCCC[N+]1(CCC)[C@@H]2CC[C@H]1C[C@@H](OC(=O)C1CCCC=C1c1ccccc1)C2 (some centres unmarked) [1st formula, 3rd R, 7th R'] | 190 | > 5.6 |  |
| CCN1[C@@H]2CC[C@H]1C[C@@H](OC(=O)C1CCCC=C1c1ccccc1)C2 (stereo partly drawn) [Example 4, Endo-3-(2-phenyl-2-cyclohexen-1-carbonyloxy)-8-sin-ethyl-8-azabicyclo-[3.2.1.]-octane] | 280 | 6.12 |  |
| CN1[C@@H]2CC[C@H]1C[C@@H](OC(=O)C(CO)c1ccccc1)C2 (some centres unmarked) [Atropine sulphate, atropine sulphate, reference compound] | 6.9 | 0.068 | inhibition of PAF-acether induced bronchospasm (in words) ([3]; anestetized guinea pig): fully inactive; inhibition % of PAF-acether induced bronchospasm ([3]; 3 μmol kg^-1): 0%; ED50, inhibition of bronchospasm induced by acetyl choline aerosol [2]: 68 nmol/kg |
| CC(C)[N+]1(C(C)C)[C@@H]2CC[C@H]1C[C@@H](OC(=O)CC1=C(c3ccccc3)CCCC1)C2 [2nd formula, 2nd R, 4th R'] | 67000 | > 5.6 |  |
| CCCC[N+]1(C(C)C)[C@@H]2CC[C@H]1C[C@@H](OC(=O)C1CCCC=C1c1ccccc1)C2 (some centres unmarked) [1st formula, 2nd R, 7th R'] | 45 | 0.99 |  |
| CCCC[N+]1(CC)[C@@H]2CC[C@H]1C[C@@H](OC(=O)C1CCCC=C1c1ccccc1)C2 (some centres unmarked) [1st formula, 1st R, 7th R'] | 69 |  |  |
| CC(C)C[N+]1(C(C)C)[C@@H]2CC[C@H]1C[C@@H](OC(=O)C1CCCC=C1c1ccccc1)C2 (some centres unmarked) [1st formula, 2nd R, 6th R'] | 80 | 1.08 |  |
| CC[N+]1(C)[C@@H]2CC[C@H]1C[C@@H](OC(=O)CC1=C(c3ccccc3)CCCC1)C2 (stereo partly drawn) [Example 9, Endo-3-(2-phenyl-1-cyclohexen-1-acetoxy)-8-sin-methyl-8-ethyl-8-azoniabicyclo-[3.2.1.]-octane iodide] | 32 | ~0.4 |  |
| CC[N+]1(C(C)C)[C@@H]2CC[C@H]1C[C@@H](OC(=O)C1CCCC=C1c1ccccc1)C2 (some centres unmarked) [1st formula, 1st R, 4th R'] |  |  | ED50, inhibition of bronchospasm induced by acetyl choline aerosol [2]: ~ 5900 nmol kg^-1 |
| CC[N+]1(CC(C)C)[C@@H]2CC[C@H]1C[C@@H](OC(=O)C1CCCC=C1c1ccccc1)C2 (some centres unmarked) [1st formula, 1st R, 6th R'] | 54 | > 5.7 |  |
| CC(C)[N+]1(C(C)C)[C@@H]2CC[C@H]1C[C@@H](OC(=O)C1CCCC=C1c1ccccc1)C2 (some centres unmarked) [1st formula, 2nd R, 4th R'] | 46 | 2.5 |  |
| CCC[N+]1(CC(C)C)[C@@H]2CC[C@H]1C[C@@H](OC(=O)C1CCCC=C1c1ccccc1)C2 (some centres unmarked) [1st formula, 3rd R, 6th R'] | 1200 | > 5.6 |  |
| CC[N+]1(C(C)C)[C@@H]2CC[C@H]1C[C@@H](OC(=O)C1CCCC=C1c1ccccc1)C2 (stereo partly drawn) [Example 14, Endo-3-(2-phenyl-2-cyclohexen-1-carbonyloxy)-8-sin-isopropyl-8-ethyl-8-azoniabicylo-[3.2.1.]-octane iodide] |  |  | IC50 [4]: > 100000 nM; IC50 [5]: > 100000 nM; IC50 [6]: 29900 nM; LD50 [7, 8]: 91 mg/kg; selectivity ratio ([7]; ip): 3.3; LD50 [7, 9]: 300 mg/kg; inhibition % of PAF-acether induced bronchospasm ([3]; 0.3 μmol kg^-1): 0%; inhibition % of PAF-acether induced bronchospasm ([3]; 3 μmol kg^-1): 42 ± 14%; ED50, inhibition of bronchospasm induced by acetyl choline aerosol ([2]; listed as 1st formula, 2nd R, R'=CH2CH3): 22 nmol/kg |
| CCC[N+]1(C(C)C)[C@@H]2CC[C@H]1C[C@@H](OC(=O)C1CCCC=C1c1ccccc1)C2 (some centres unmarked) [1st formula, 3rd R, 4th R'] |  | > 5.7 |  |
| C[N+]1(C)[C@@H]2CC[C@H]1C[C@@H](OC(=O)CC1=C(c3ccccc3)CCCC1)C2 [Example 8, Endo-3-(2-phenyl-1-cyclohexen-1-acetoxy)-8,8-dimethyl-8-azoniabicyclo-[3.2.1.]-octane iodide] | 1.1 |  | LD50 [7, 8]: 45 mg/kg; selectivity ratio ([7]; ip): 18; LD50 [7, 9]: 800 mg/kg |
| CCC[N+]1(C(C)C)[C@@H]2CC[C@H]1C[C@@H](OC(=O)CC1=C(c3ccccc3)CCCC1)C2 (some centres unmarked) [2nd formula, 2nd R, 5th R'] | 8500 | > 5.6 |  |

| Compound | IC50 [1] [nM] | ED50 [2] [µmol/kg] | further results |
| --- | --- | --- | --- |
| CC[N+]1(C(C)C)[C@@H]2CC[C@H]1C[C@@H](OC(=O)CC1=C(c3ccccc3)CCCC1)C2 (stereo partly drawn) [Example 32, Endo-3-(2-phenyl-1-cyclohexen-1-acetoxy)-8-sin-isopropyl-8-ethyl-8-azoniabicyclo-[3.2.1.]-octane iodide] | 9000 | > 5.7 |  |
| CC[N+]1(C)[C@@H]2CC[C@H]1C[C@@H](OC(=O)C1CCCC=C1c1ccccc1)C2 (stereo partly drawn) [Example 20, Endo-3-(2-phenyl-2-cyclohexen-1-carbonyloxy)-8-sin-ethyl-8-methyl-8-azoniabicyclo-[3.2.1.]-octane iodide] | 0.95 |  | IC50 [4]: > 100000 nM; IC50 [5]: > 100000 nM; IC50 [6]: 7700 nM; LD50 [7, 8]: 126 mg/kg; selectivity ratio ([7]; ip): 2.8; LD50 [7, 9]: 350 mg/kg; inhibition % of PAF-acether induced bronchospasm ([3]; 0.3 μmol kg^-1): 3 ± 11%; inhibition % of PAF-acether induced bronchospasm ([3]; 3 μmol kg^-1): 36 ± 17% |
| CCC[N+]1(C)[C@@H]2CC[C@H]1C[C@@H](OC(=O)CC1=C(c3ccccc3)CCCC1)C2 (some centres unmarked) [2nd formula, 1st R, 5th R'] | 240 | > 0.6 |  |
| CC(C)[N+]1(C)[C@@H]2CC[C@H]1C[C@@H](OC(=O)C(CO)c1ccccc1)C2 (some centres unmarked) [ipratropium bromide, reference compound] | 2 | 0.012 | inhibition of PAF-acether induced bronchospasm (in words) ([3]; anestetized guinea pig): fully inactive; inhibition % of PAF-acether induced bronchospasm ([3]; 3 μmol kg^-1): 7 ± 10%; ED50, inhibition of bronchospasm induced by acetyl choline aerosol [2]: 12 nmol/kg |
| CCC[N+]1(C)[C@@H]2CC[C@H]1C[C@@H](OC(=O)C1CCCC=C1c1ccccc1)C2 (stereo partly drawn) [Example 25, Endo-3-(2-phenyl-2-cyclohexen-1-carbonyloxy)-8-sin-propyl-8-methyl-8-azoniabicyclo-[3.2.1.]-octane iodide] | 3.3 |  | LD50 [7, 8]: 124 mg/kg; selectivity ratio ([7]; ip): 4.8; LD50 [7, 9]: 600 mg/kg |
| CN1[C@@H]2CC[C@H]1C[C@@H](OC(=O)CC1=C(c3ccccc3)CCCC1)C2 [Example 6, Endo-3-(2-phenyl-1-cyclohexen-1-acetoxy)-8-sin-methyl-8-azabicyclo-[3.2.1.]-octane] | 4200 | ~15 |  |
| CC(C)[N+]1(C)[C@@H]2CC[C@H]1C[C@@H](OC(=O)CC1=C(c3ccccc3)CCCC1)C2 (some centres unmarked) [2nd formula, 1st R, 4th R'] |  | > 0.6 |  |
| CCCN1[C@@H]2CC[C@H]1C[C@@H](OC(=O)C1CCCC=C1c1ccccc1)C2 (stereo partly drawn) [Example 5, Endo-3-(2-phenyl-2-cyclohexen-1-carbonyloxy)-8-sin-propyl-8-azabicyclo-[3.2.1.]-octane] | 1700 | > 7.7 |  |
| CCC[N+]1(CC)[C@@H]2CC[C@H]1C[C@@H](OC(=O)C1CCCC=C1c1ccccc1)C2 (stereo partly drawn) [Example 26, Endo-3-(2-phenyl-2-cyclohexen-1-carbonyloxy)-8-sin-propyl-8-ethyl-8-azoniabicyclo-[3.2.1.]-octane iodide] |  | 0.228 |  |
| CC(C)[N+]1(C)[C@@H]2CC[C@H]1C[C@@H](OC(=O)CC1=C(c3ccccc3)CCCC1)C2 (stereo partly drawn) [Example 31, Endo-3-(2-phenyl-1-cyclohexen-1-acetoxy)-8-sin-isopropyl-8-methyl-8-azoniabicyclo-[3.2.1.]-octane iodide] | 27 |  |  |
| CC(C)N1[C@@H]2CC[C@H]1C[C@@H](OC(=O)C1CCCC=C1c1ccccc1)C2 (stereo partly drawn) [Example 1, Endo-3-(2-phenyl-2-cyclohexen-1-carbonyloxy)-8-sin-isopropyl-8-azabicyclo-[3.2.1]-octane] | 350 | ~1.5 |  |
| CC(C)[N+]1(C)[C@@H]2CC[C@H]1C[C@@H](OC(=O)C1CCCC=C1c1ccccc1)C2 (stereo partly drawn) [Example 13, Endo-3-(2-phenyl-2-cyclohexen-1-carbonyloxy)-8-sin-isopropyl-8-methyl-8-azoniabicyclo-[3.2.1.]-octane iodide] | 0.67 |  | IC50 [4]: > 100000 nM; IC50 [5]: > 100000 nM; IC50 [6]: 39100 nM; LD50 [7, 8]: 123 mg/kg; selectivity ratio ([7]; ip): 4.1; LD50 [7, 9]: 500 mg/kg; inhibition % of PAF-acether induced bronchospasm ([3]; 0.3 μmol kg^-1): 0%; inhibition % of PAF-acether induced bronchospasm ([3]; 3 μmol kg^-1): 28 ± 13% |
| CC[N+]1(CC)[C@@H]2CC[C@H]1C[C@@H](OC(=O)C1CCCC=C1c1ccccc1)C2 (stereo partly drawn) [Example 21, Endo-3-(2-phenyl-2-cyclohexene-1-carbonyloxy)-8,8-di-ethyl-azoniabicyclo-[3.2.1.]-octane iodide] | 0.03 | 0.029 | IC50 [4]: > 100000 nM; IC50 [5]: > 100000 nM; IC50 [6]: 2400 nM; LD50 [7, 8]: 107 mg/kg; selectivity ratio ([7]; ip): 7.5; LD50 [7, 9]: 800 mg/kg; ED50 ([3]; Cavia porcellus, anestetized guinea pig): 0.8 µmol/kg; inhibition % of PAF-acether induced bronchospasm ([3]; 0.3 μmol kg^-1): 43 ± 16%; inhibition % of PAF-acether induced bronchospasm ([3]; 3 μmol kg^-1): 64 ± 16% |
| CCC[N+]1(CCC)[C@@H]2CC[C@H]1C[C@@H](OC(=O)C1CCCC=C1c1ccccc1)C2 (some centres unmarked) [1st formula, 3rd R, 5th R'] | 380 |  |  |
| CC(C)N1[C@@H]2CC[C@H]1C[C@@H](OC(=O)CC1=C(c3ccccc3)CCCC1)C2 [Example 7, Endo-3-(2-phenyl-1-cyclohexen-1-acetoxy)-8-sin-isoproyl-8-azabicyclo-[3.2.1.]-octane] | 30000 | > 7.4 |  |

From patent US4780467A, “Esters of N-alkyl-nortropines and their quaternary derivatives having anti-bronchospastic activity, and pharmaceutical compositions containing them” (Laboratori Guidotti Spa, priority 1986, dated 1988)
